From ChEMBL document CHEMBL1158256, “Betulinans A and B, two benzoquinone compounds from Lenzites betulina” (J Nat Prod, 1996) come the findings set out here.

≈ marks a conversion by molar mass, not a printed value.

The test system of the assay is Liver microsomes. Kind of assay: Inhibition of lipid peroxidation in rat liver microsomes. The class given is functional, Microsome. On the technique in general: Liver microsomes are vesicles of endoplasmic reticulum, rich in cytochrome P450 enzymes.

As usually defined, the IC50 is the midpoint of a concentration-inhibition curve. Low values mean inhibition by little substance, high ones a need for much substance. For the compound `COC1=C(c2ccccc2)C(=O)C2=C(C1=O)c1ccccc1CO2` [BETULINAN B], the IC50 stood at 2.88 µg/mL (≈ 9.05 µM).

In turn, `COC1=C(c2ccccc2)C(=O)C(OC)=C(c2ccccc2)C1=O` [BETULINAN A] returned an IC50 of 0.46 µg/mL (≈ 1.44 µM).

Compound VITAMIN E yielded an IC50 of 1.68 µg/mL.
